# Measured values from article PMC12171880, “Selectivity and Safety Characterization of a Xanthine–Imidazothiazole Lead Structure: a Novel Tryptophan Hydroxylase Inhibitor of Peripheral Serotonin Synthesis” (ACS Pharmacology & Translational Science, 2025).
# Legend:
# human recombinant TPH2 = biological target: T1, human recombinant TPH2 (Homo sapiens, UniProt Q8IWU9); assay: TPH2 enzymatic activity assay (fluorescence, 96-well); type: biochemical
# T1 construct: Full-length human TPH1 and TPH2 (UniProt entries P17752 and Q8IWU9); MBP (N); made in house
# T1 sequence (Q8IWU9 1-490): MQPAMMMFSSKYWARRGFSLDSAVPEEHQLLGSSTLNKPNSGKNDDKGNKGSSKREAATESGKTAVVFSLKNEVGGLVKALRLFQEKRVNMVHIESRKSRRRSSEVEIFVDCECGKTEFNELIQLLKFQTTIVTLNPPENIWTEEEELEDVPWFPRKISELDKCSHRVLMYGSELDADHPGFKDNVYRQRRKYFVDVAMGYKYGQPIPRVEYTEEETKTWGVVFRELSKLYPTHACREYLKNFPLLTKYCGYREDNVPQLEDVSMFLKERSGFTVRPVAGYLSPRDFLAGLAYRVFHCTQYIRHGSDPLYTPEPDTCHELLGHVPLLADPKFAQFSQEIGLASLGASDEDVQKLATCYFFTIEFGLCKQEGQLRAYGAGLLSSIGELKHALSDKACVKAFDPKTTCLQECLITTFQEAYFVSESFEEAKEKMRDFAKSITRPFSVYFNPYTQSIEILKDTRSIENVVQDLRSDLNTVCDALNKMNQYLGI
# human recombinant PAH = biological target: T2, human recombinant PAH (Homo sapiens, UniProt P00439); assay: PAH enzymatic activity assay (fluorescence, 96-well); type: biochemical
# T2 construct: expression vectors for full-length human PAH (UniProt entry P00439); made in house; host or cells: E. coli T7 Express (NEB) with pRARE2
# T2 sequence (P00439 1-452): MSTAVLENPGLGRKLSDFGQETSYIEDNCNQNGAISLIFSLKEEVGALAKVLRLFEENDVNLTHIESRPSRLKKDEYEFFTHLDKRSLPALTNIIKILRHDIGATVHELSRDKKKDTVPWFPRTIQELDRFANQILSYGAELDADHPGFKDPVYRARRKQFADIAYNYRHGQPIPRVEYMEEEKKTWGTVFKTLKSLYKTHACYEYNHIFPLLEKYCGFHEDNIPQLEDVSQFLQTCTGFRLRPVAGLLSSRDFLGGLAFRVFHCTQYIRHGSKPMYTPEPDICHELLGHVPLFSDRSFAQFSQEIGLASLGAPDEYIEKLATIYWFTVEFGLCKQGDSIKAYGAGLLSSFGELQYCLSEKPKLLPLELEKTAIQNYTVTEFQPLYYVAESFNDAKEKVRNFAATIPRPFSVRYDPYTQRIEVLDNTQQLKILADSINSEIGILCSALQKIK
# Sprague–Dawley rats = assay: Dose-range finding study in rats, histopathology; type: in vivo, rat
# Experimental: Blood samples were collected as described below. The animal sacrifice (exsanguination) was performed on day 8. During the necropsy, the selected organs were collected, weighed, and shipped to a third-party laboratory for histopathological examination (as described below).
# The histological evaluation was performed by AnaPath Services GmbH (Liestal, Switzerland). The samples from the organs–liver, kidney, lung, heart, brain, femur, and ovary–were fixed in 4% neutral-buffered formaldehyde. The testes were fixed by using the Davidson solution. All tissues were trimmed, processed, and embedded in paraffin wax. Samples from the femur were processed and embedded in paraffin after decalcification. Blocks were cut at an approximate thickness of 2–4 μm and stained with hematoxylin and eosin (HE) according to AnaPath Services GmbH SOP’s. The slides were checked under the microscope for a quality check before examination under a light microscope by the study pathologist.
# [1] = Toxicokinetic evaluation, plasma exposure in rats (LC-MS); type: in vivo, rat; conditions: for concentration at 30 min: both sexes, Sprague-Dawley, rat, plasma, po
# Experimental: TPT-004 was formulated in 0.5% (w/v) CMC-Na in water and administered by oral gavage (PO) twice daily (b.i.d.) with a 12 h interval to the treatment groups (3 male and 3 female Sprague–Dawley rats each) for 8 days (15 successive applications). Rats were dosed with 10, 45, and 200 mg/kg, i.e., daily doses of 20, 90, and 400 mg/kg. In addition, a control group was dosed at the same frequency as the vehicle (0.5% CMC-Na).
# A blood sample of 100 μL was obtained from each rat by puncturing one of the lateral tail veins under short isoflurane anesthesia. Blood was collected in tubes containing lithium heparin and gently mixed. After centrifugation (10 min at 3000g, 4 °C), plasma was separated and stored at −20 °C until LC-MS analysis. In addition, on day 8, the rats were exsanguinated by cardiac puncture under isoflurane anesthesia. A volume of 100 μL of blood (K3-EDTA) was used for immediate cell blood count, while the rest of the blood was mixed with lithium heparin and centrifuged to generate plasma for clinical chemistry analysis.
# brain serotonin turnover = conditions: mice, 1.5 mg/kg BID to 100 mg/kg BID; prior pharmacodynamic studies; cited from earlier work
# mice = conditions: 14 days repeated oral treatment, 10 or 50 mg/kg BID, previous study; cited from earlier work
# [2] = calculated from determined IC50 values
structure (smiles),measurement,setting,value
CCn1c(=O)[nH]c(=O)c2c1nc(Cc1cn3cc(C)sc3n1)n2CC1COC1 [TPT-004],Mean TPH2 activity [%],human recombinant TPH2; 3 nM,100.37%
same,IC50,"human recombinant TPH2; 3 nM to 10 μM, 30 μM L-Trp, 7.5 μM BH4",21.7 nM
same,Mean TPH2 activity [%],human recombinant TPH2; 10 nM,73.97%
same,Mean TPH2 activity [%],human recombinant TPH2; 30 nM,38.03%
same,Mean TPH2 activity [%],human recombinant TPH2; 100 nM,5.40%
same,Mean TPH2 activity [%],human recombinant TPH2; 300 nM,1.60%
same,Mean TPH2 activity [%],human recombinant TPH2; 1 μM,0.69%
same,Mean TPH2 activity [%],human recombinant TPH2; 3 μM,1.07%
same,Mean TPH2 activity [%],human recombinant TPH2; 10 μM,1.24%
same,Selectivity ratio TPH2 IC50 : TPH1 IC50,human recombinant TPH2; [2],0.65
same,IC50,human recombinant TPH2; supplementary CSV,22 nM
same,Mean PAH activity [%],human recombinant PAH; 10 nM,94.75%
same,IC50,"human recombinant PAH; 10 nM to 30 μM, 175 μM L-Phe, 10 μM BH4",404 nM
same,Mean PAH activity [%],human recombinant PAH; 30 nM,91.12%
same,Mean PAH activity [%],human recombinant PAH; 100 nM,82.79%
same,Mean PAH activity [%],human recombinant PAH; 300 nM,58.10%
same,Mean PAH activity [%],human recombinant PAH; 1 μM,25.53%
same,Mean PAH activity [%],human recombinant PAH; 3 μM,9.81%
same,Mean PAH activity [%],human recombinant PAH; 10 μM,4.37%
same,Mean PAH activity [%],human recombinant PAH; 30 μM,2.49%
same,Selectivity ratio PAH IC50 : TPH1 IC50,human recombinant PAH; [2],12.09
same,IC50,human recombinant PAH; supplementary CSV,404 nM
same,"histopathological findings in heart, spleen, kidney, lung, brain, femur, testis, or ovary",Sprague–Dawley rats; 45 and 200 mg/kg BID,no test-related findings
same,histopathological finding in the liver,Sprague–Dawley rats; only at doses ≥45 mg/kg BID,"multifocal, minimal centrilobular hypertrophy"
same,accumulation in plasma after 15 doses,"[1]; 10, 45, 200 mg/kg BID, day 1 vs day 8",absence of an accumulation effect
same,concentration at 30 min,"[1]; 10 mg/kg, day 1, 30 min after the first application, 10 mg/kg PO",902 ± 247 ng/mL
same,concentration at 30 min,"[1]; 10 mg/kg, day 8, 30 min after the 15th application, 10 mg/kg BID PO",877 ± 210 ng/mL
same,concentration at 30 min,"[1]; 45 mg/kg, day 1, 30 min after the first application, 45 mg/kg PO",4720 ± 2420 ng/mL
same,concentration at 30 min,"[1]; 45 mg/kg, day 8, 30 min after the 15th application, 45 mg/kg BID PO",5040 ± 1790 ng/mL
same,concentration at 30 min,"[1]; 200 mg/kg, day 1, 30 min after the first application, 200 mg/kg PO",18200 ± 6610 ng/mL
same,concentration at 30 min,"[1]; 200 mg/kg, day 8, 30 min after the 15th application, 200 mg/kg BID PO",14400 ± 5600 ng/mL
same,dose linearity correlation in plasma,[1]; day 1,0.9987
same,dose linearity correlation in plasma,[1]; day 8,0.9826
same,balance of brain serotonin turnover,brain serotonin turnover,did not show an altered balance of brain serotonin turnover
same,neuropsychiatric effects in behavioral tests,mice,no neuropsychiatric effects were observed
